The test system of this experiment is PKB Ser473 phosphorylation in Rat1-myr-HA-p110 alpha cells. Kind of experiment: Reverse protein array, PKB Ser473 phosphorylation in Rat1-myr-HA-p110 alpha cells. Format: cell-based. The note with it: Rattus norvegicus, 0.5 h, 30 minutes compound incubation, read-out: p-PKB/IC50_alpha.
For the compound `CNc1ncc(-c2ccc3ncc4c(c3c2)n(-c2ccc(N3CC(F)(F)C3)nc2C)c(=O)n4C)cn1` [Example 24.1, 1-[6-(3,3-Difluoro-azetidin-1-yl)-2-methyl-pyridin-3-yl]-3-methyl-8-(2-methylamino-pyrimidin-5-yl)-1,3-dihydro-imidazo[4,5-c]quinolin-2-one], the IC50 was determined as 15.3 nM. With `CCOc1cc(-c2ccc3ncc4c(c3c2)n(-c2ccc(N3CCCC3)nc2C)c(=O)n4C)cnc1COC` [Example 25.2, 8-(5-Ethoxy-6-methoxymethyl-pyridin-3-yl)-3-methyl-1-(2-methyl-6-pyrrolidin-1-yl-pyridin-3-yl)-1,3-dihydro-imidazo[4,5-c]quinolin-2-one] the figure was 48 nM; with `Cc1nc(N2CCCC2)ccc1-n1c(=O)n(C)c2cnc3ccc(-c4cncc(C(C)(C)O)c4)cc3c21` [Example 25.3, 8-[5-(1-Hydroxy-1-methyl-ethyl)-pyridin-3-yl]-3-methyl-1-(2-methyl-6-pyrrolidin-1-yl-pyridin-3-yl)-1,3-dihydro-imidazo[4,5-c]quinolin-2-one], 13.9 nM. Regarding `Cc1nc(N(C)CCO)ccc1-n1c(=O)n(C)c2cnc3ccc(-c4cnc(N)c(C(F)(F)F)c4)cc3c21` [Example 26.1, 8-(6-Amino-5-trifluoromethyl-pyridin-3-yl)-1-{6-[(2-hydroxy-ethyl)-methyl-amino]-2-methyl-pyridin-3-yl}-3-methyl-1,3-dihydro-imidazo[4,5-c]quinolin-2-one], the IC50 is under 4.57 nM. In the case of `CNc1ncc(-c2ccc3ncc4c(c3c2)n(-c2ccc(N(C)CCO)nc2C)c(=O)n4C)cn1` [Example 26.2, 1-{6-[(2-Hydroxy-ethyl)-methyl-amino]-2-methyl-pyridin-3-yl}-3-methyl-8-(2-methylamino-pyrimidin-5-yl)-1,3-dihydro-imidazo[4,5-c]quinolin-2-one] it was 5.1 nM; in that of `CNc1ncc(-c2ccc3ncc4c(c3c2)n(-c2ccc(N3CCC(O)C3)nc2C)c(=O)n4C)cn1` (stereo not drawn) [Example 27.2, 1-[6-(3-Hydroxy-pyrrolidin-1-yl)-2-methyl-pyridin-3-yl]-3-methyl-8-(2-methylamino-pyrimidin-5-yl)-1,3-dihydro-imidazo[4,5-c]quinolin-2-one], 11.3 nM.

On to `COC1CCN(c2ccc(-n3c(=O)n(C)c4cnc5ccc(-c6cncc(C(C)(C)O)c6)cc5c43)c(C)n2)C1` (stereo not drawn) [Example 28.1, 8-[5-(1-Hydroxy-1-methyl-ethyl)-pyridin-3-yl]-1-[6-(3-methoxy-pyrrolidin-1-yl)-2-methyl-pyridin-3-yl]-3-methyl-1,3-dihydro-imidazo[4,5-c]quinolin-2-one], for which the IC50 came to 22.7 nM.

Take `CCNc1cc(-c2ccc3ncc4c(c3c2)n(-c2ccc(N3CC(O)C3)nc2C)c(=O)n4C)cnc1CO` [Example 29.2, 8-(5-Ethylamino-6-hydroxymethyl-pyridin-3-yl)-1-[6-(3-hydroxy-azetidin-1-yl)-2-methyl-pyridin-3-yl]-3-methyl-1,3-dihydro-imidazo[4,5-c]quinolin-2-one]: the IC50 came to 14 nM. With `CNc1ncc(-c2ccc3ncc4c(c3c2)n(-c2ccc(N3CC(O)C3)nc2C)c(=O)n4C)cc1F` [Example 29.3, 8-(5-Fluoro-6-methylamino-pyridin-3-yl)-1-[6-(3-hydroxy-azetidin-1-yl)-2-methyl-pyridin-3-yl]-3-methyl-1,3-dihydro-imidazo[4,5-c]quinolin-2-one] the figure was 21.9 nM; with `CNc1ncc(-c2ccc3ncc4c(c3c2)n(-c2ccc(N3CC(O)C3)nc2C)c(=O)n4C)cc1C(F)(F)F` [Example 29.4, 1-[6-(3-Hydroxy-azetidin-1-yl)-2-methyl-pyridin-3-yl]-3-methyl-8-(6-methylamino-5-trifluoromethyl-pyridin-3-yl)-1,3-dihydro-imidazo[4,5-c]quinolin-2-one], 8 nM; with `COc1cc(-c2ccc3ncc4c(c3c2)n(-c2ccc(N3CC(O)C3)nc2C)c(=O)n4C)cnc1CO` [Example 29.5, 1-[6-(3-Hydroxy-azetidin-1-yl)-2-methyl-pyridin-3-yl]-8-(6-hydroxymethyl-5-methoxy-pyridin-3-yl)-3-methyl-1,3-dihydro-imidazo[4,5-c]quinolin-2-one], 197 nM.

For the compound `COc1ncc(-c2ccc3ncc4c(c3c2)n(-c2ccc(N3CC(O)C3)nc2C)c(=O)n4C)c(OC)n1` [Example 29.6, 8-(2,4-Dimethoxy-pyrimidin-5-yl)-1-[6-(3-hydroxy-azetidin-1-yl)-2-methyl-pyridin-3-yl]-3-methyl-1,3-dihydro-imidazo[4,5-c]quinolin-2-one], the IC50 amounted to 17 nM. In the case of `CNc1ncc(-c2ccc3ncc4c(c3c2)n(-c2ccc(C(C)(C)O)nc2C)c(=O)n4C)cc1F` [Example 31.1, 8-(5-Fluoro-6-methylamino-pyridin-3-yl)-1-[6-(1-hydroxy-1-methyl-ethyl)-2-methyl-pyridin-3-yl]-3-methyl-1,3-dihydro-imidazo[4,5-c]quinolin-2-one] it was 14.6 nM; in that of `CNc1ncc(-c2ccc3ncc4c(c3c2)n(-c2ccc(N3CC[C@H](O)C3)nc2C)c(=O)n4C)cn1` [Example 32.1, 1-[6-((S)-3-Hydroxy-pyrrolidin-1-yl)-2-methyl-pyridin-3-yl]-3-methyl-8-(2-methylamino-pyrimidin-5-yl)-1,3-dihydro-imidazo[4,5-c]quinolin-2-one], under 4.57 nM.

For `CNc1ncc(-c2ccc3ncc4c(c3c2)n(-c2ccc(N3CC[C@H](O)C3)nc2C)c(=O)n4C)cc1F` [Example 32.2, 8-(5-Fluoro-6-methylamino-pyridin-3-yl)-1-[6-((S)-3-hydroxy-pyrrolidin-1-yl)-2-methyl-pyridin-3-yl]-3-methyl-1,3-dihydro-imidazo[4,5-c]quinolin-2-one], the IC50 worked out at 8.1 nM. With `COc1ncc(-c2ccc3ncc4c(c3c2)n(-c2ccc(N3CC[C@H](O)C3)nc2C)c(=O)n4C)c(OC)n1` [Example 32.3, 8-(2,4-Dimethoxy-pyrimidin-5-yl)-1-[6-((S)-3-hydroxy-pyrrolidin-1-yl)-2-methyl-pyridin-3-yl]-3-methyl-1,3-dihydro-imidazo[4,5-c]quinolin-2-one] the figure was 45 nM; with `CNc1ncc(-c2ccc3ncc4c(c3c2)n(-c2ccc(N3CC[C@H](O)C3)nc2C)c(=O)n4C)cc1C(F)(F)F` [Example 32.5, 1-[6-((S)-3-Hydroxy-pyrrolidin-1-yl)-2-methyl-pyridin-3-yl]-3-methyl-8-(6-methylamino-5-trifluoromethyl-pyridin-3-yl)-1,3-dihydro-imidazo[4,5-c]quinolin-2-one], 10 nM.

For `Cc1nc(N2CC[C@H](O)C2)ccc1-n1c(=O)n(C)c2cnc3ccc(-c4cncc(OC(C)C)c4)cc3c21` [Example 32.8, 1-[6-((S)-3-Hydroxy-pyrrolidin-1-yl)-2-methyl-pyridin-3-yl]-8-(5-isopropoxy-pyridin-3-yl)-3-methyl-1,3-dihydro-imidazo[4,5-c]quinolin-2-one], the IC50 was determined as 35.8 nM. With `Cc1nc(C(F)(F)F)ccc1-n1c(=O)n(C)c2cnc3ccc(-c4cncc(C(C)(C)O)c4)cc3c21` [Example 33.1, 8-[5-(1-Hydroxy-1-methyl-ethyl)-pyridin-3-yl]-3-methyl-1-(2-methyl-6-trifluoromethyl-pyridin-3-yl)-1,3-dihydro-imidazo[4,5-c]quinolin-2-one] the figure was 19 nM; with `CCNc1ncc(-c2ccc3ncc4c(c3c2)n(-c2ccc(N3CC[C@@H](O)C3)nc2C)c(=O)n4C)cc1C(F)(F)F` [Example 34.2, 8-(6-Ethylamino-5-trifluoromethyl-pyridin-3-yl)-1-[6-((R)-3-hydroxy-pyrrolidin-1-yl)-2-methyl-pyridin-3-yl]-3-methyl-1,3-dihydro-imidazo[4,5-c]quinolin-2-one], 11.7 nM; with `CCNc1ncc(-c2ccc3ncc4c(c3c2)n(-c2ccc(N3CC[C@@H](O)C3)nc2C)c(=O)n4C)cc1COCC` [Example 34.4, 8-(5-Ethoxymethyl-6-ethylamino-pyridin-3-yl)-1-[6-((R)-3-hydroxy-pyrrolidin-1-yl)-2-methyl-pyridin-3-yl]-3-methyl-1,3-dihydro-imidazo[4,5-c]quinolin-2-one], 35 nM.

The values above are taken from patent publication US20100311714A1, “1H-IMIDAZO[4,5-c]QUINOLINONE COMPOUNDS” (priority 2009, published 2010).
